One test deals with TRKA kinase (Homo sapiens (Human), UniProt P04629). Kind of test: Assay of small molecular compounds for inhibiting the activity of TRKA kinase (LANCE TR-FRET). The class given is biochemical. The procedure, abridged:
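TRKA (supplied as 2 nM 2× solution) was pre-reacted with compounds for 5 min at room temperature before a 4× ULight-TK peptide/ATP mix (400 nM/40 μM) started the 60-min dark reaction at 1% DMSO. After stop and 60-min detection, TR-FRET was read.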
(TR-FRET usually uses a lanthanide donor and a delayed reading to cut background.)

Test [1] has as its system Ba/F3 LMNA-NTRK1-G595R cells. Nature of the test: Assay for inhibiting the proliferation of Ba/F3 LMNA-NTRK1-G595R cells (CCK-8). The class given is cell-based. Conditions: Mus musculus, BaF3. How it is done:
(§1) In particular, the method of the assay of small molecular compounds for inhibiting cell proliferation is as follows: • 1. Cells cultured to a logarithmic growth phase (adherent cells need to be digested with trypsin and neutralized) were taken, pipetted evenly, transferred to a 15 mL centrifuge tube, and centrifuged at 1000 rpm at room temperature for 4 minutes; • 2. The supernatant was discarded; 5 mL of complete medium was added and pipetted evenly; 10 μL of cell suspension was taken out, mixed well with 10 μL of 0.4% trypan blue, and counted under a cell counter; the proportion of living cells was ensured to be above 90%; • 3. 80 μL of cell suspension per well was seeded into a 96-well plate according to the conditions shown in the attached table, and cultured overnight; in the outer 36 wells of the 96-well plate, no cells were added but only sterile water was added; only the inner 60 wells were used for cell assay and control; • 4. 5×compound dilution: the compounds were serially diluted 3-fold to obtain a total of 9 concentrations; 80-fold overall dilution was completed with complete medium, the resulting concentration was 5 times the final drug concentration, and DMSO concentration was 1.25%; • 5. 20 μL of the corresponding compounds with different concentration gradients were added to each well of assay wells of the 96-well plate; 20 μL of complete medium was added to positive and negative control wells and shaken well; and the final concentration of DMSO in each well was 0.25%; • 6. After 72 hours of incubation, 10 μL of CCK-8 reagent was added to each well and further incubated at 37° C. for 1-2 hours; and the OD value was read at 450 nm; • 7. Cell survival rate (%)=[(As−Ab)/(Ac−Ab)]*100% • As: Assay well (medium containing cells, CCK-8, compound), • Ac: Control well (medium containing cells, CCK-8), • Ab: Blank well (CCK-8, medium without cell and compound), • 8. The values were imported into Graphpad Prism 5 software for IC50 calculation.

A further test deals with Ba/F3 LMNA-NTRK1 cells. Nature of the test: Assay for inhibiting the proliferation of Ba/F3 LMNA-NTRK1 cells (CCK-8). The class given is cell-based. Conditions: Mus musculus, BaF3. How it is done:
as §1, with “5×compound dilution: the compounds were serially diluted 3-fold to obtain a total of 9 concentrations; 80-fold overall dilution was completed with complete medium, the resulting concentration was 5 times the final drug concentration, and DMSO concentration was 1.25%; • 5.” left out

The subject of another test is Ba/F3-AXL cells. Kind of test: Assay for inhibiting the proliferation of Ba/F3-AXL cells (CCK-8). Conditions: 72 hours of incubation, medium with 100 ng/mL hGas6, CCK-8. The class given is cell-based. How it is done:
The values were then imported into Graphpad Prism 5 software for curve fitting, and IC50 was calculated.

The test system of another test is MHCC97H cells. Kind of test: Assay for inhibiting the proliferation of MHCC97H cells (CCK-8). Format: cell-based. Conditions: Homo sapiens. How it is done: as §1
Another test has as its system EBC1 cells. Nature of the test: Assay for inhibiting the proliferation of EBC1 cells (CCK-8). Format: cell-based. Conditions: Homo sapiens, EBC-1. How it is done:
as §1

Another test has as its target VEGFR-2 kinase (Homo sapiens (Human), UniProt P35968). Kind of test: Assay of small molecular compounds for inhibiting the activity of VEGFR-2 kinase (LANCE TR-FRET). The class given is biochemical. Conditions: read-out: VEGFR2 IC50. On the procedure:
The assay is based on the LANCE TR-FRET technology of Perkin Elmer Inc., and the assay method is as follows: • 1. Dilution of compounds: a total of 11 concentrations were obtained using a 3-fold gradient dilution from the highest concentration of 2500 nM (the maximum final concentration of the drug used in this assay was 2500 nM, and the minimum final concentration was 0.042 nM). • 2. 2.5 μL of the gradient-diluted compounds were taken with a transfer pipette to a 384-well plate. • 3. Addition of enzyme: 5 μL of 2×VEGFR2 kinase solution (with a concentration of 0.5 nM) was taken with a transfer pipette to the corresponding reaction well of the 384-well plate, mixed well and pre-reacted at room temperature for 30 minutes. • 4. 2.5 μL 4× Ultra ULight™-JAK-1 (Tyr1023) Peptide (with a concentration of 200 nM)/ATP (with a concentration of 40 μM) mixture was taken with a transfer pipette to the corresponding reaction well of the 384-well plate. • 5. Negative control: 2.5 μL/well 4× substrate/ATP mixture and 7.5 μL 1× Kinase Assay Buffer were added to the wells of the 384-well plate. • 6. Positive control: 2.5 μL/well 4× substrate/ATP mixture, 2.5 μL/well 1× Kinase Assay Buffer containing 16% DMSO, and 5 μL/well 2×VEGFR-2 kinase solution were added to the 384-well plate. The final concentration of DMSO in the reaction system was 4%. • 7. The mixture was mixed well and then centrifuged and reacted at room temperature in dark for 60 min. • 8. Termination of the enzymatic reaction: 5 μL of 4× stop solution was taken with a transfer pipette to the wells of the 384-well plate, mixed and then centrifuged, and reacted at room temperature for 5 min. • 9. Development of the reaction: 5 μL of 4× detection solution was taken with a transfer pipette to the wells of the 384-well plate for color development, and the mixture was mixed and then centrifuged and reacted at room temperature for 60 min. • 10. The 384-well plate was placed into the Envision plate reader and the signal was detected using the appropriate program. • 11. Analysis and processing of the raw data: The drug concentrations and the corresponding inhibition rates were input into GraphPad Prism5 for calculation, and the inhibition rate of the compounds were calculated as follows: inhibition rate (%)=(reading of positive well−reading of experimental well)/(reading of positive control well−reading of negative control well)×100%. Processing with GraphPad Prism5 software yielded the corresponding IC50 values (the concentration of the compound at which 50% of the highest inhibition of the enzyme is achieved).

Another test addresses c-MET kinase (Homo sapiens (Human), UniProt P08581). Nature of the test: Assay of small molecular compounds for inhibiting the activity of c-MET kinase (LANCE TR-FRET). The class given is biochemical. Conditions: read-out: CMET IC50. The procedure, abridged: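 Eleven final concentrations from 2500 nM down to 0.042 nM, in 4% DMSO, were tested against human c-MET (2× stock 2 nM), with compound and enzyme premixed for 5 min. The phosphorylation reaction used 4× stock of 400 nM ULight-JAK-1 peptide and 40 μM ATP for 60 min at room temperature, then stop and detection steps. TR-FRET percent inhibition against positive and negative controls gave the IC50.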

For orientation: IC50 means the concentration at which inhibition is half-maximal.

TRKA kinase, sequence (P04629 33-796): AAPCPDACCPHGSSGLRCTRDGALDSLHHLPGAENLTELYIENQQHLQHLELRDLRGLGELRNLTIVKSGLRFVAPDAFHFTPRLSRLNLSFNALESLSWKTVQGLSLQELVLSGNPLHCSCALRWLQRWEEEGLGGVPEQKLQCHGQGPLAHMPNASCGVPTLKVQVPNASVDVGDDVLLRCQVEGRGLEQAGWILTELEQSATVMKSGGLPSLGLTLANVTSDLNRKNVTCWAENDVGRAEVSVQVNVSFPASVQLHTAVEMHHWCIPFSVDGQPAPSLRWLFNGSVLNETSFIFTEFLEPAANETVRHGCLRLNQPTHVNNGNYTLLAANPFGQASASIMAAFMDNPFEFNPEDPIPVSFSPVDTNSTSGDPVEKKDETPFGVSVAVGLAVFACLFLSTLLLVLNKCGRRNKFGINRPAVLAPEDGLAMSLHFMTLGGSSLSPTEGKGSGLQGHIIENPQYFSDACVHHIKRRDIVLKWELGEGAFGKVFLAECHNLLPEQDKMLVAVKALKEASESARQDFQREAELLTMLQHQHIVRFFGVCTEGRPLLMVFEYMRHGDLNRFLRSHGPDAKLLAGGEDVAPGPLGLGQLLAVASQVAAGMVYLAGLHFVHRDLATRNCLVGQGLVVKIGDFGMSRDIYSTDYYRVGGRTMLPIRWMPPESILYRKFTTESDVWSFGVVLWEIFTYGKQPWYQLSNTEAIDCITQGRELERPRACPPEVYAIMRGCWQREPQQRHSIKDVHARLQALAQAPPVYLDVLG
c-MET kinase, sequence (P08581 25-1390): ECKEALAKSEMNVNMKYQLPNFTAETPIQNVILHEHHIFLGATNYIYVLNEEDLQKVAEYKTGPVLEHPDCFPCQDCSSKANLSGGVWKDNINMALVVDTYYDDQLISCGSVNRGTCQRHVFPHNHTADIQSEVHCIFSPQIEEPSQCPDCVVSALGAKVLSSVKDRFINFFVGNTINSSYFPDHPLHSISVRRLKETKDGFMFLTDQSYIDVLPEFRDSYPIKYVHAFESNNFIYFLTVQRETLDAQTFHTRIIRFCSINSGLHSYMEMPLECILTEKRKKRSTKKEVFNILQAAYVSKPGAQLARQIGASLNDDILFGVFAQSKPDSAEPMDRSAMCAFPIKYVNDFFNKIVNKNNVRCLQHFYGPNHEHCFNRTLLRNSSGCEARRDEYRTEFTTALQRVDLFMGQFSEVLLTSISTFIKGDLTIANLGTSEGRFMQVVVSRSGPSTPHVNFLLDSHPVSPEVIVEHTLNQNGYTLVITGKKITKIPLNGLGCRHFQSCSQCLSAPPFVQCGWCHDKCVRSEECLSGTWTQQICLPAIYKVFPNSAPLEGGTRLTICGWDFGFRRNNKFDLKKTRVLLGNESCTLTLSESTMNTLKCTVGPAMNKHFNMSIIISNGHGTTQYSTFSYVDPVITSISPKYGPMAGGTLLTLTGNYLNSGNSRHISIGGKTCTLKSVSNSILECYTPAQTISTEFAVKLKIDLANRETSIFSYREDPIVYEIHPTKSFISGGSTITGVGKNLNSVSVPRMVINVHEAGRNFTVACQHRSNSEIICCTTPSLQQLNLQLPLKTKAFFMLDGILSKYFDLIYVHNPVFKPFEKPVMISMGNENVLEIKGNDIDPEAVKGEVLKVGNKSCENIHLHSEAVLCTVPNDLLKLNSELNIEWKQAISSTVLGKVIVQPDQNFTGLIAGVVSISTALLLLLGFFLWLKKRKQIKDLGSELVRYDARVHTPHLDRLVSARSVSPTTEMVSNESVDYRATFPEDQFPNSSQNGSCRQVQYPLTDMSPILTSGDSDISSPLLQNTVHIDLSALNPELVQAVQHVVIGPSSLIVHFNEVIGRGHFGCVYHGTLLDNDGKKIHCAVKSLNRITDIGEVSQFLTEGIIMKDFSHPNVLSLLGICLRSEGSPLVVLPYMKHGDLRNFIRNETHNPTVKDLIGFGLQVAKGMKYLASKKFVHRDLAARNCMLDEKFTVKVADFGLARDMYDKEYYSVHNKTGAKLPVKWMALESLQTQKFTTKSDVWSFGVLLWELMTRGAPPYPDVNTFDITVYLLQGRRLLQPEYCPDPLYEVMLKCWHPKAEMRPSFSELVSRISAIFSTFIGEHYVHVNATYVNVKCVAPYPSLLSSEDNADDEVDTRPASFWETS
VEGFR-2 kinase, sequence (P35968 20-1356): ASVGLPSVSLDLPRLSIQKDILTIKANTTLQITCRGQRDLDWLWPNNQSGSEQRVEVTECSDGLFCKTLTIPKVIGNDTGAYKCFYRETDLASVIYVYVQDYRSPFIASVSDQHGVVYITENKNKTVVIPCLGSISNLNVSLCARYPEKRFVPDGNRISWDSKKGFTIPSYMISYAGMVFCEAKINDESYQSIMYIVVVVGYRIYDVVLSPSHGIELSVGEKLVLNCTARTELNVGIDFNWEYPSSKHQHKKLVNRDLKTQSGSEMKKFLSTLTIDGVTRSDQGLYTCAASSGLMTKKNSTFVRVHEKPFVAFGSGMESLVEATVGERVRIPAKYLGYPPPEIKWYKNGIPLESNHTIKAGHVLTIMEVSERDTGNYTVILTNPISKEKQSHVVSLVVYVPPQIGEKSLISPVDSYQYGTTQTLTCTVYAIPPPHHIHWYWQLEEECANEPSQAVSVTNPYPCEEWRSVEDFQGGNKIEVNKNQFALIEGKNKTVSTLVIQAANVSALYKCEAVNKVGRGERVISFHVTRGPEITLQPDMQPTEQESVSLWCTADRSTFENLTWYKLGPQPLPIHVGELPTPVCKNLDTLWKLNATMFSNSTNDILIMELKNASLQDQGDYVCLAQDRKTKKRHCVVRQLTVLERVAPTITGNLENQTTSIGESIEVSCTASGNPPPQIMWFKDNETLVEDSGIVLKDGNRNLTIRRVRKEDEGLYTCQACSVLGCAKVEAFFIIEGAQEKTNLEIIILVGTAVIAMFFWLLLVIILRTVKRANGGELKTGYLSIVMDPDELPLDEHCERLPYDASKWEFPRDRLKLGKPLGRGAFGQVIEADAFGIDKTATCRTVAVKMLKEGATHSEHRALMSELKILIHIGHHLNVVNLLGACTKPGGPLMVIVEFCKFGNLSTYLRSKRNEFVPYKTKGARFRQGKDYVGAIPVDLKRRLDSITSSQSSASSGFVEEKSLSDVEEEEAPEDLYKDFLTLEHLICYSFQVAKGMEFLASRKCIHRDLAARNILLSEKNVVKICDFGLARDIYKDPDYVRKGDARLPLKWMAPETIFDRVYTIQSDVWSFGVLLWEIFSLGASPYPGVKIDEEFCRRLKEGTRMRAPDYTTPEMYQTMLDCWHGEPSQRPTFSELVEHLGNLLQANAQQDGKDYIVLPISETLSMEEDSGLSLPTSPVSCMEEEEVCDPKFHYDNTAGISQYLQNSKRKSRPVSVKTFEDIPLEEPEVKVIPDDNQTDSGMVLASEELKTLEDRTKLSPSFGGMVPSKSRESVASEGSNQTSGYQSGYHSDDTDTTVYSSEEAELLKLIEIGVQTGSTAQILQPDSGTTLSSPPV

For the molecule `Cn1cc(C(=O)Nc2ccc(Oc3ccnc4ccc5c(c34)OCCO5)cc2)c(=O)n(-c2ccc(F)cc2)c1=O` [Example 158, N-(4-((2,3-dihydro-[1,4]dioxino[2,3-f]quinolin-10-yl)oxy)phenyl)-3-(4-fluorophenyl)-1-methyl-2,4-dioxo-1,2,3,4-tetrahydropyrimidine-5-carboxamide], the IC50 at TRKA kinase is 0.05 to 0.5 µM; in test [1], more than 1 µM; in the test on Ba/F3 LMNA-NTRK1 cells it was 0.2 to 1 µM.

Regarding `CCn1cc(C(=O)Nc2ccc(Oc3ccnc4ccc5c(c34)OCCO5)cc2)c(=O)n(-c2ccc(F)cc2)c1=O` [Example 159, N-(4-((2,3-dihydro-[1,4]dioxino[2,3-f]quinolin-10-yl)oxy)phenyl)-3-(4-fluorophenyl)-1-ethyl-2,4-dioxo-1,2,3,4-tetrahydropyrimidine-5-carboxamide], the IC50 was 0.05 to 0.5 µM against TRKA kinase, more than 1 µM in test [1] and 0.2 to 1 µM in the test with Ba/F3 LMNA-NTRK1 cells.

Take `O=C(Nc1ccc(Oc2ccnc3cc(OCCCN4CCOCC4)c4c(c23)OCCO4)c(F)c1)c1cccn(-c2ccc(F)cc2)c1=O` [Example 20, N-(3-fluoro-4-((5-(3-morpholinopropoxy)-2,3-dihydro-[1,4]dioxino[2,3-f]quinolin-10-yl)oxy)phenyl)-1-(4-fluorophenyl)-2-oxo-1,2-dihydropyridine-3-carboxamide]: the IC50 was less than 0.05 µM in the test on Ba/F3-AXL cells, not above 0.05 µM in the test with MHCC97H cells, less than 0.05 µM in the test on Ba/F3 LMNA-NTRK1 cells and not above 0.05 µM in the test on EBC1 cells.

Consider `CN(C)CCCOc1cc2nccc(Oc3ccc(NC(=O)c4cn(C)c(=O)n(-c5ccc(F)cc5)c4=O)cc3F)c2c2c1OCCO2` [Example 86, N-(3-fluoro-4-((5-((3-dimethylamino)propoxy)-2,3-dihydro-[1,4]dioxino[2,3-f]quinolin-10-yl)oxy)phenyl)-3-(4-fluorophenyl)-1-methyl-2,4-dioxo-1,2,3,4-tetrahydropyrimidine-5-carboxamide], for which the IC50 was less than 0.05 µM in the test on Ba/F3-AXL cells; 0.05 to 0.5 µM on VEGFR-2 kinase; 0.05 to 0.2 µM in the test on MHCC97H cells; 0.05 to 0.2 µM in test [1]; less than 0.05 µM with Ba/F3 LMNA-NTRK1 cells; not above 0.05 µM in the test on EBC1 cells.

With `CCn1cc(C(=O)Nc2cc(F)c(Oc3ccnc4cc(OC)c5c(c34)OCCO5)cc2C)c(=O)n(-c2ccc(F)cc2)c1=O` [Example 178, N-(5-fluoro-4-((5-methoxy-2,3-dihydro-[1,4]dioxino[2,3-f]quinolin-10-yl)oxy)-2-methylphenyl)-3-(4-fluorophenyl)-1-ethyl-2,4-dioxo-1,2,3,4-tetrahydropyrimidine-5-carboxamide], the IC50 against TRKA kinase was less than 0.05 µM; with MHCC97H cells, not above 0.05 µM; on c-MET kinase, not above 0.05 µM; in test [1], not above 0.05 µM; in the test with Ba/F3 LMNA-NTRK1 cells it was less than 0.05 µM.

`CCOc1ccn(-c2ccc(F)cc2)c(=O)c1C(=O)Nc1ccc(Oc2ccnc3cc(OCCCCCCN(C)C)c4c(c23)OCCO4)c(F)c1` [Example 60, N-(4-((5-((6-dimethylamino)hexyloxy)-2,3-dihydro-[1,4]dioxino[2,3-f]quinolin-10-yl)oxy)-3-fluorophenyl)-4-ethoxy-1-(4-fluorophenyl)-2-oxo-1,2-dihydropyridine-3-carboxamide]: the IC50 with Ba/F3-AXL cells is less than 0.05 µM; with MHCC97H cells it was 0.05 to 0.2 µM; with Ba/F3 LMNA-NTRK1 cells it was less than 0.05 µM; with EBC1 cells, not above 0.05 µM.

For `Cc1cc(Oc2ccnc3ccc4c(c23)OCCO4)c(F)cc1NC(=O)c1cn(C)c(=O)n(-c2ccc(F)cc2)c1=O` [Example 175, N-(4-((2,3-dihydro-[1,4]dioxino[2,3-f]quinolin-10-yl)oxy)-5-fluoro-2-methylphenyl)-3-(4-fluorophenyl)-1-methyl-2,4-dioxo-1,2,3,4-tetrahydropyrimidine-5-carboxamide], the values for the IC50 (on TRKA kinase; in test [1]; in the test on Ba/F3 LMNA-NTRK1 cells) were less than 0.05 µM, 0.05 to 0.2 µM and less than 0.05 µM, respectively.

In the case of `CCOc1ccn(-c2ccc(F)cc2)c(=O)c1C(=O)Nc1ccc(Oc2ccnc3cc(OCCCN(C)C)c4c(c23)OCCO4)c(F)c1` [Example 61, N-(4-((5-((3-dimethylamino)propoxy)-2,3-dihydro-[1,4]dioxino[2,3-f]quinolin-10-yl)oxy)-3-fluorophenyl)-4-ethoxy-1-(4-fluorophenyl)-2-oxo-1,2-dihydropyridine-3-carboxamide], the IC50 was less than 0.05 µM in the test on Ba/F3-AXL cells, not above 0.05 µM in the test on MHCC97H cells, less than 0.05 µM in the test with Ba/F3 LMNA-NTRK1 cells and not above 0.05 µM in the test on EBC1 cells.

Regarding `CCn1cc(C(=O)Nc2ccc(Oc3ccnc4cc(OC)c5c(c34)OCCO5)cc2F)c(=O)n(-c2ccc(F)cc2)c1=O` [Example 154, N-(2-fluoro-4-((5-methoxy-2,3-dihydro-[1,4]dioxino[2,3-f]quinolin-10-yl)oxy)phenyl)-3-(4-fluorophenyl)-1-ethyl-2,4-dioxo-1,2,3,4-tetrahydropyrimidine-5-carboxamide], the IC50 on TRKA kinase is less than 0.05 µM; on c-MET kinase, not above 0.05 µM; in test [1], 0.05 to 0.2 µM; in the test on Ba/F3 LMNA-NTRK1 cells, less than 0.05 µM.

Source of the values: patent US12202835B2, “Substituted aromatic ring-linked dioxinoquinazolines and dioxinoquinolines as kinase inhibitors” (BEIJING SCITECH-MQ PHARMACEUTICALS LIMITED, priority 2018, dated 2025).
